Measured values: the NIST ThermoML archive (doi:10.1021/acs.jced.5b00242)

Key:
[1] = refractive index (Na D-line) (dimensionless); xn = mol fraction of the nth substance listed; conditions: 101 kPa, Liquid, Standard Abbe refractometry
[2] = xn = mol fraction of the nth substance listed; conditions: 101 kPa, Liquid; for viscosity: Stabinger Viscometer; for mass density: Vibrating tube method

CCn1cc[n+](C)c1.C[C@H](N)C(=O)[O-] [1-ethyl-3-methylimidazolium L-alaninate] + CCn1cc[n+](C)c1.N#C[C-](C#N)C#N
Conditions | mass density, [2] [kg/m3] | refractive index, [1] | viscosity, [2] [mPa·s]
293.15 K, x2 = 0 | 1126.3 | 1.51366 | 382.06
293.15 K, x2 = 0.2506 | 1113.7 | 1.51476 | 146.57
293.15 K, x2 = 0.5 | 1102.2 | 1.51409 | 78.6
293.15 K, x2 = 0.7499 | 1092.9 | 1.51367 | 31.55
298.15 K, x2 = 0 | 1123 | 1.51223 | 263.98
298.15 K, x2 = 0.2506 | 1110.4 | 1.5133 | 107.2
298.15 K, x2 = 0.5 | 1098.9 | 1.51258 | 60.26
298.15 K, x2 = 0.7499 | 1089.3 | 1.5121 | 25.68
303.15 K, x2 = 0 | 1119.8 | 1.51081 | 187.79
303.15 K, x2 = 0.2506 | 1107.1 | 1.51184 | 80.47
303.15 K, x2 = 0.5 | 1095.6 | 1.51107 | 46.89
303.15 K, x2 = 0.7499 | 1085.9 | 1.51053 | 21.18
308.15 K, x2 = 0 | – | 1.50937 | 137.47
308.15 K, x2 = 0.2506 | – | 1.51038 | 61.83
308.15 K, x2 = 0.5 | – | 1.5095 | –
308.15 K, x2 = 0.7499 | – | 1.50893 | –
313.15 K, x2 = 0 | – | 1.50793 | –
313.15 K, x2 = 0.2506 | – | 1.50888 | –
313.15 K, x2 = 0.5 | – | 1.50796 | –
313.15 K, x2 = 0.7499 | – | 1.50731 | –
318.15 K, x2 = 0 | – | 1.50651 | –
318.15 K, x2 = 0.2506 | – | 1.50736 | –
318.15 K, x2 = 0.5 | – | 1.50643 | –
318.15 K, x2 = 0.7499 | – | 1.50568 | –
323.15 K, x2 = 0 | – | 1.50505 | –
323.15 K, x2 = 0.2506 | – | 1.5059 | –
323.15 K, x2 = 0.5 | – | 1.50488 | –
323.15 K, x2 = 0.7499 | – | 1.50401 | –
328.15 K, x2 = 0 | – | 1.50358 | –
328.15 K, x2 = 0.2506 | – | 1.50436 | –
328.15 K, x2 = 0.5 | – | 1.50338 | –
328.15 K, x2 = 0.7499 | – | 1.50244 | –
333.15 K, x2 = 0 | – | 1.50217 | –
333.15 K, x2 = 0.2506 | – | 1.50293 | –
333.15 K, x2 = 0.5 | – | 1.50191 | –
333.15 K, x2 = 0.7499 | – | 1.50085 | –
338.15 K, x2 = 0 | – | 1.50074 | –
338.15 K, x2 = 0.2506 | – | 1.50148 | –
338.15 K, x2 = 0.5 | – | 1.50039 | –
338.15 K, x2 = 0.7499 | – | 1.49926 | –
343.15 K, x2 = 0 | – | 1.49932 | –
343.15 K, x2 = 0.2506 | – | 1.49997 | –
343.15 K, x2 = 0.5 | – | 1.49888 | –
343.15 K, x2 = 0.7499 | – | 1.49771 | –
348.15 K, x2 = 0 | – | 1.49795 | –
348.15 K, x2 = 0.2506 | – | 1.49851 | –
348.15 K, x2 = 0.5 | – | 1.49739 | –
348.15 K, x2 = 0.7499 | – | 1.49613 | –
353.15 K, x2 = 0 | – | 1.49656 | –
353.15 K, x2 = 0.2506 | – | 1.49704 | –
353.15 K, x2 = 0.5 | – | 1.49589 | –
353.15 K, x2 = 0.7499 | – | 1.49456 | –
